Where two headings read alike, the source gives them in different places.
Columns and labels:
[1] = target: T1, TGFBIp611-633 G623R peptide (Homo sapiens, UniProt Q15582, G623R); assay: ThT fluorescence assay, inhibition of amyloid fibrillation; type: biochemical; settings: for inhibition at 200000 µM: 200 mM
T1 construct: The 23-amino acid long peptide (TGFBIp 611-633 c.623 G>R) from the 4th FAS1 domain; purchased Synpeptide Co Ltd, Shanghai, China; host or cells: synthetic peptide
Experimental: The 23-amino acid long peptide (TGFBIp 611-633 c.623 G>R) from the 4th FAS1 domain of TGFBIp with the substitution, G623→R ([…]) that rapidly formed amyloid fibrils was used in this study. The peptide was dissolved (0.6 mg/ml) in PBS and allowed to form amyloid fibrils in 50 ml Falcon tubes in a shaking incubator at 37° C. and 180 rpm with and without the addition of osmolytes. […] The TGFBIp^611-633 G623R peptide incubated with PBS was used as a control.
The peptide samples collected at various time points above were treated with 30 μM Thioflavin T (ThT) (Sigma-Aldrich Inc., MO, USA) in PBS buffer at pH 5.5 in a 96-well microplate (Greiner Bio-One, Frickenhausen, Germany) for ThT fluorescence assay. The microplate was excited at 445 nm and the resulting emission fluorescence at 485 nm was measured using a microplate reader (Tecan Infinite M200 Pro, CA, USA).
Percentage inhibition for each osmolyte treatment was calculated by subtracting the baseline fluorescent intensity without the peptides and compounds from the observed fluorescent intensity of each treatment well. The fluorescent intensities per osmolyte treatment were normalized against the untreated fluorescent intensity per time point and expressed as a percentage.
The TGFBIp^611-633 G623R peptides were treated with 200 mM and 320 mM of taurine for up to 72 hours, respectively, the results of which are illustrated in FIG. 11. The TGFBIp^611-633 N622K peptides were treated with 200 mM and 320 mM of taurine for up to 240 hours, respectively, the results of which are illustrated in FIG. 12. The peptides incubated with PBS were used as controls.
The peptide samples were collected at 24 h, 48 h and 72 h after treatment for TGFBIp^611-633 G623R peptides and at 120 h, 144 h and […] after treatment for the TGFBIp^611-633 N622K peptides. The samples were then treated with 30 μM ThT in PBS buffer at pH 5.5 in a 96-well microplate for ThT fluorescence assay. The microplate was excited at 445 nm and the resulting emission fluorescence at 485 nm was measured using a microplate reader.

[2] = target: T2, preformed amyloid fibrils from TGFBIp611-633 G623R peptide (Homo sapiens, UniProt Q15582, G623R); assay: Circular Dichroism assay (θ[218]), disaggregation of preformed amyloid fibrils; type: biochemical; settings: for inhibition at 200000 µM / disruption of the β-sheet structure compared among the four osmolytes, CD: preformed fibrils; for inhibition at 200000 µM: read-out: % Inhibition (mean ± SD) n = 3, θ[218] of preformed amyloid fibrils, circular dichroism; for % Dissolution at final time point, CD: TGFBIp-G623R preformed fibrils, listed as taurine
T2 construct: The 23-amino acid long peptide (TGFBIp 611-633 c.623 G>R) from the 4th FAS1 domain; purchased Synpeptide Co Ltd, Shanghai, China; host or cells: synthetic peptide
Experimental: Circular Dichroism (CD) spectroscopy was performed to study the disaggregation of the preformed amyloid fibrils. […] The treatment solutions were studied by far UV-CD assay.
(§1) Circular Dichroism (CD) spectroscopy was performed to study the disaggregation of the preformed amyloid fibrils. The preformed amyloid fibrils were treated with taurine at a concentration of 200 mM and 320 mM in PBS buffer at pH 7.0 for 24 h, 48 h and 72 respectively. The treatment solutions were studied by far UV-CD assay.

[3] = target: T1, TGFBIp611-633 G623R peptide; assay: ThT fluorescence microscopy, inhibition of amyloid fibrillation
Experimental: The inhibitory effects of the four osmolytes on amyloid fibrillation of the TGFBIp^611-633 G623R peptide were investigated further by fluorescence microscopy after ThT staining. The peptide samples collected at various time points above were incubated ThT at a ratio of 1:1 ratio in the dark for 30 minutes to obtain solutions for fluorescence microscopy. 25 μl of the solutions were taken on to slides with coverslips and visualized under a fluorescent microscope (Axiolmager Z1, Carl Zeiss, Oberkochen, Germany).
The inhibition effect of taurine on the amyloid fibrillation was investigated further by fluorescence microscopy after ThT staining. The samples collected at the various time points above were incubated ThT at a ratio of 1:1 ratio in the dark for 30 minutes to obtain solutions for fluorescence microscopy. 25 μl of the solutions were taken on to slides with coverslips and visualized under a fluorescent microscope.

[4] = target: T3, preformed amyloid fibrils from TGFBIp611-633 N622K peptide (Homo sapiens, UniProt Q15582, N622K); assay: ThT fluorescence assay, dissolution of preformed amyloid fibrils; type: biochemical; settings: TGFBIp-N622K preformed fibrils
T3 construct: purchased Synpeptide Co Ltd, Shanghai, China; host or cells: synthetic peptide
Experimental: (§2) The model peptides TGFBIp^611-633 G623R and TGFBIp^611-633 N622K were incubated in PBS for 24 hours for the TGFBIp^611-633 G623R peptide and 96 hours for the TGFBIp^611-633 N622K peptide, allowed to form uniform amyloid fibrils. The formation of amyloid fibrils was confirmed by (SEM) and CD spectroscopy.
The preformed amyloid fibrils were treated with taurine at a concentration of 200 mM and 320 mM for up to 72 hours, respectively. The preformed amyloid fibrils incubated with PBS were used as controls.
The samples were collected at 24 h, 48 h and 72 h after treatment for the TGFBIp^611-633 G623R peptides, and at 24 h, 48 h, 96 h and 144 h after treatment for the TGFBIp^611-633 N622K peptides. The samples were then treated with 30 μM ThT in PBS buffer at pH 5.5 in a 96-well microplate for ThT fluorescence assay. The microplate was excited at 445 nm and the resulting emission fluorescence at 485 nm was measured using a microplate reader.

[5] = target: T3, preformed amyloid fibrils from TGFBIp611-633 N622K peptide; assay: Circular Dichroism assay, disaggregation of preformed amyloid fibrils; type: biochemical; settings: TGFBIp-N622K preformed fibrils, listed as taurine
Experimental: as §2, §1

[6] = 24 h, read-out: % Inhibition (mean ± SD) n = 3, ThT fluorescence
[7] = 48 h, read-out: % Inhibition (mean ± SD) n = 3, ThT fluorescence
[8] = 72 h, read-out: % Inhibition (mean ± SD) n = 3, ThT fluorescence
[9] = TGFBIp-G623R, 320 mM, final time point

T1 sequence (Q15582 611-633 G623R limits assumed): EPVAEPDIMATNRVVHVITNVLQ
T3 sequence (Q15582 611-633 N622K limits assumed): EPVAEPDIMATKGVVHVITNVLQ

inhibition at 200000 µM [1, 6] [%] | inhibition at 200000 µM [1, 7] [%] | inhibition at 200000 µM [1, 8] [%] | inhibition at 200000 µM ([2]; 200 mM, 24 h) [%] | inhibition at 200000 µM ([2]; 200 mM, 48 h) [%] | inhibition at 200000 µM ([2]; 200 mM, 72 h) [%] | inhibition at 200000 µM ([1]; TGFBIp-G623R, final time point, read-out: % Inhibition at final time point, ThT) [%] | % Inhibition at final time point, ThT [1, 9] [%] | inhibition at 320000 µM [1, 9] [%] | % Dissolution at final time point, CD ([2]; 200 mM) [%] | % Dissolution at final time point, CD ([2]; 320 mM) [%] | fluorescent intensity under microscope ([3]; 200 mM and 320 mM) | % Dissolution at final time point, ThT ([4]; 200 mM) [%] | % Dissolution at final time point, ThT ([4]; 200 mM, listed as taurine) [%] | % Dissolution at final time point, ThT ([4]; 320 mM) [%] | % Dissolution at final time point, ThT ([4]; 320 mM, listed as taurine) [%] | % Dissolution at final time point, CD ([5]; 200 mM) [%] | % Dissolution at final time point, CD ([5]; 320 mM) [%] | SMILES | disruption of the β-sheet structure compared among the four osmolytes, CD ([2]; 200 mM) | ThT fluorescence images, fluorescent spots ([3]; 200 mM, 24 h to 72 h, versus PBS control)
21 ± 6 | 32 ± 2 | 65 | 7 ± 7 | 48 ± 9 | ~58 | – | – | – | – | – | – | – | – | – | – | – | – | OC[C@H]1O[C@H](OC[C@H]2O[C@H](O[C@]3(CO)O[C@H](CO)[C@@H](O)[C@@H]3O)[C@H](O)[C@@H](O)[C@@H]2O)[C@H](O)[C@@H](O)[C@H]1O [Raffinose, raffinose] | highest disruption of the β-sheet structure | –
20 ± 6 | 34 ± 5 | 48 | 13 ± 6 | 40 ± 12 | ~54 | 41 | 60 | 61 | 49 | 69 | reduction in fluorescent intensity | 83 | 83 | 88 | 88 | 61 | 66 | NCCS(=O)(=O)O [Taurine, taurine] | highest disruption of the β-sheet structure | relatively smaller fluorescent spots even after 24 h
16 ± 3 | 26 ± 3 | 44 | 6 ± 1 | 24 ± 11 | 36 | – | – | – | – | – | – | – | – | – | – | – | – | C[N+](C)(C)CC(=O)O [Betaine, betaine] | – | –
20 ± 3 | 32 ± 2 | 56 | 12 ± 8 | 39 ± 6 | 41 | – | – | – | – | – | – | – | – | – | – | – | – | CNCC(=O)O [Sarcosine, sarcosine] | – | –
